Assays:
[1] = target: T1, Adrenergic receptor alpha-1 (Rattus norvegicus, UniProt P15823+P23944+P43140); assay: Alpha-1 adrenergic receptor binding affinity was evaluated by its ability to displace [3H]prazosin in rat brain synaptosomes; assay type: subcellular
T1 sequence (P15823 whole entry): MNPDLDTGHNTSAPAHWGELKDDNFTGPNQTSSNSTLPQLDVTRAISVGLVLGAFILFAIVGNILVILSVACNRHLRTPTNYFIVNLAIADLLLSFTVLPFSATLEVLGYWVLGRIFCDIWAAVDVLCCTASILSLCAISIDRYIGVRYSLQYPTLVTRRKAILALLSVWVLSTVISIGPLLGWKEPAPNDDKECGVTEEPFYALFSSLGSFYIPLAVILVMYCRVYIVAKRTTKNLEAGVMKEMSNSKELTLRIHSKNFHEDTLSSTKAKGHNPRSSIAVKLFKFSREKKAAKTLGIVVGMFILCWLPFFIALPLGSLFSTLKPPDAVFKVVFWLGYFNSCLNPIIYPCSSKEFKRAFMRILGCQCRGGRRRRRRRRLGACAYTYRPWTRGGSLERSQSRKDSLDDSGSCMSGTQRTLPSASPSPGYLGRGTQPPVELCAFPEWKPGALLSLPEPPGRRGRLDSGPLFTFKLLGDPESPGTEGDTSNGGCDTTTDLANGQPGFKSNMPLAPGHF
T1 sequence (P23944 whole entry): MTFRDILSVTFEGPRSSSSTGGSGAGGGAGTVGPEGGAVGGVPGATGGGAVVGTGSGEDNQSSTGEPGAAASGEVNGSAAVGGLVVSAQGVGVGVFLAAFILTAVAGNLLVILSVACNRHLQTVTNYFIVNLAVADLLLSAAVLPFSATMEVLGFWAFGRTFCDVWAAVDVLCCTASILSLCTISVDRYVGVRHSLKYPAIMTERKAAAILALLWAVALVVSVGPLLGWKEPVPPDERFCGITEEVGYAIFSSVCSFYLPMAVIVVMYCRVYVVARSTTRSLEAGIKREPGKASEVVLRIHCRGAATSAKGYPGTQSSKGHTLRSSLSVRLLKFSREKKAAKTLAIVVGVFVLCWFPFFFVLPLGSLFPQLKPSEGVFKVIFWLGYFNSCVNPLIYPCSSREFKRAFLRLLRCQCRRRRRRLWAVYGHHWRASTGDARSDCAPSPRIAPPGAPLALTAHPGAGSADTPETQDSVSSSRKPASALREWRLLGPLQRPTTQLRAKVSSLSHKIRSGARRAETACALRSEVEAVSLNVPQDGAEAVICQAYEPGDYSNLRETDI
T1 sequence (P43140 whole entry): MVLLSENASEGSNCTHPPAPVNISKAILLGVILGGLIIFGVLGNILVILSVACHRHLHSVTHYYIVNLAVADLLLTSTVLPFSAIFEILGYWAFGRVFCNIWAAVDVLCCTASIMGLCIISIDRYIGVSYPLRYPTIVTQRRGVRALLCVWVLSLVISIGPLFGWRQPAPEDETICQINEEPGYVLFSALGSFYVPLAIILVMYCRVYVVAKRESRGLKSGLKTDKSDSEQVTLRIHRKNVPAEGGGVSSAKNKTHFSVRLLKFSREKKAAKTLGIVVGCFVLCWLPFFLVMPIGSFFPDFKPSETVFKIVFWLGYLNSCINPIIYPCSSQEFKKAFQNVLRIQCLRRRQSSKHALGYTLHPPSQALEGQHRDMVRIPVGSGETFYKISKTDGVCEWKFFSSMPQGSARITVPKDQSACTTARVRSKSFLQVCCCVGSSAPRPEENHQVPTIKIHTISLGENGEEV

[2] = [Ca2+] channel binding affinity was evaluated by its ability to displace [3H]-PN-200-110 in rat brain synaptosomes; assay type: subcellular
Oryctolagus cuniculus = organism: Oryctolagus cuniculus; assay: Inhibition constant by its ability to inhibit contractions induced by phenylephrine in rabbit dorsal aorta; assay type: functional
Rattus norvegicus = organism: Rattus norvegicus; assay: Inhibition constant by its ability to inhibit (act through Ca++ ion channel) contractions induced by K+ depolarization in rat dorsal aorta; assay type: functional

Compound | Ki [1] [nM] | Ki [2] [nM] | Kb (Oryctolagus cuniculus) [nM] | Kb (Rattus norvegicus) [nM]
CO/C(O)=C1\C(C)=NC(C)=C(C(=O)n2ccnc2)[C@H]1c1cccc([N+](=O)[O-])c1 | > 1000 | 7.8 |  | 3.6
CO/C(O)=C1\C(C)=NC(C)=C(C(=O)NCCCN2CCN(c3ccccc3OC)CC2)C1c1cccc([N+](=O)[O-])c1 (centres undefined) | 13 | 35 |  | 6.3
COC(=O)C1=C(C)NC(C)=C(C(=O)OC)C1c1ccccc1[N+](=O)[O-] [NIFEDIPINE] | > 1000 | 0.53 | > 1000 | 0.5

Second part, led by results:

Ki [1] [nM] | Ki [2] [nM] | Compound | Kb (Oryctolagus cuniculus) [nM] | Kb (Rattus norvegicus) [nM]
4.6 | 16 | COC(=O)C1=C(C)NC(C)=C(C(=O)NCCCN2CCN(c3ccccc3OC)CC2)[C@H]1c1cccc([N+](=O)[O-])c1 | 8.3 | 2.9
 | > 1000 | COc1cc2nc(N3CCN(C(=O)c4ccco4)CC3)nc(N)c2cc1OC [PRAZOSIN] | 1.6 | > 1000
36 | 338 | COC(=O)C1=C(C)NC(C)=C(C(=O)NCCCN2CCN(c3ccccc3OC)CC2)[C@@H]1c1cccc([N+](=O)[O-])c1 | 50 | 107
> 1000 | 181 | CO/C(O)=C1\C(C)=NC(C)=C(C(=O)n2ccnc2)[C@@H]1c1cccc([N+](=O)[O-])c1 |  | 31

Source: ChEMBL document CHEMBL1127206, “Preparation and in vitro biological evaluation of the enantiomers of the diydropyridine BMY 20014, a combination calcium and 1-adrenoreceptor antagonist” (Bioorg Med Chem Lett, 1993)
